The record followed here is patent US20040002441A1, “Recombination modulators and methods for producing and using the same” (priority 2000, published 2004).

Data set [1] deals with T1, Vaccinia topoisomerase (type Ib) (Vaccinia virus, UniProt P68698).
T1 construct: made in house; host or cells: Escherichia coli BL21 infected with bacteriophage λCE6
Put plainly: biochemical. In kind it is biochemical.

The target of data set [2] is T1, Vaccinia topoisomerase (type Ib). Put plainly: biochemical. To be noted: peptide concentrations up to 42 μM.
Data set [3] concerns the target T2, E. coli topoisomerase I (type Ia) (Escherichia coli, UniProt P06612).
T2 sequence (P06612 1-865): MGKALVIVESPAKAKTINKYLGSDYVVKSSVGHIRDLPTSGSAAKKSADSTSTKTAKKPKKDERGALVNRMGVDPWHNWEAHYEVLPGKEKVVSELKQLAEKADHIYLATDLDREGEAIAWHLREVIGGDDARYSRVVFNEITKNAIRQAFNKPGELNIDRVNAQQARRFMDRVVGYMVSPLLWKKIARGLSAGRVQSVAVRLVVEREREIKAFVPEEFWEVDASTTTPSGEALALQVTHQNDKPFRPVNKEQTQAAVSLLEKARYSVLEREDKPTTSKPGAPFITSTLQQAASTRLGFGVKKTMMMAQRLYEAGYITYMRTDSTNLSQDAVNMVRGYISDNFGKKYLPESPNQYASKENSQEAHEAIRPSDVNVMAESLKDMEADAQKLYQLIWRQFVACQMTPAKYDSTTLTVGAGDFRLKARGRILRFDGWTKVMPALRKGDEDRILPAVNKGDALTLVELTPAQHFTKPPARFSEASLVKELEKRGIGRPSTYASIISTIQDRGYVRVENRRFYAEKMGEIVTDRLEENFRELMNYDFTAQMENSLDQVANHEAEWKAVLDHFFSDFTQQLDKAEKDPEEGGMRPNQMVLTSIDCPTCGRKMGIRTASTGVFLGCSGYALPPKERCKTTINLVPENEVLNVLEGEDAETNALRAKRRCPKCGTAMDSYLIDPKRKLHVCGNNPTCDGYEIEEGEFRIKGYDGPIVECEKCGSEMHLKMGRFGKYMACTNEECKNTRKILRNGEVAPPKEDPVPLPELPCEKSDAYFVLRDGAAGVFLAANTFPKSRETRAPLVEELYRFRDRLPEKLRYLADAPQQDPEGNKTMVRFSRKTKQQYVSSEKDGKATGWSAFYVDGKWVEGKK
Description: biochemical. To be noted: peptide concentrations up to 42 μM. From the text:
E. coli topoisomerase I (TopA) exemplifies the type IA topoisomerase family. Type IA enzymes are mechanistically and structurally unrelated to the topoisomerase IB/tyrosine recombinase superfamily of DNA strand transferases.

Data set [4] has as its target T3, Lambda integrase (Int) (Bacteriophage lambda) (UniProt P03700).
T3 sequence: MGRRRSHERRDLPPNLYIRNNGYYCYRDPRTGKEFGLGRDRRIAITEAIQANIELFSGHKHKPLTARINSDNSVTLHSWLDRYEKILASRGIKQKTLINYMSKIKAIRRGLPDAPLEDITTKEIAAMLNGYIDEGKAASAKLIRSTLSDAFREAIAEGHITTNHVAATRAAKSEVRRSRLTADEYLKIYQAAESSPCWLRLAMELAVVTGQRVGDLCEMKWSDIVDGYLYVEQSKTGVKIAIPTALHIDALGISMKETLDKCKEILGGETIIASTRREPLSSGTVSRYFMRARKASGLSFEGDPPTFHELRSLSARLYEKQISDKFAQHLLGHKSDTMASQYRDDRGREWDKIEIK
Description: cleavage_in_vitro.

For the substance WCHYNY, the “effect on transesterification (DNA cleavage)” value in data set [1] was “did not inhibit transesterification”. Besides, the “effect on DNA relaxation” value in data set [2] and in data set [3] was “no effect” in each case.

In data set [4] (excision with IHF and Xis, no peptide), attL + attR excision substrates showed an activity of more than 70%.

For “excision Holliday junction (attL x attR)”, the activity in data set [4] (Int alone HJ resolution, binds weakly alone, 42.4% with IHF, 14.4% with Xis, 58.2% with IHF+Xis, 95.3% with IHF+Xis no spermidine) came out at 7.2%.
